Common to all, as to test: relative viability (nuclei count vs DMSO), 5 days (fraction); higher = more cells survive
Compound in the assay “Daporinad + Tozasertib”: O=C(/C=C/c1cccnc1)NCCCCC1CCN(C(=O)c2ccccc2)CC1 [Daporinad] + Cc1cc(Nc2cc(N3CCN(C)CC3)nc(Sc3ccc(NC(=O)C4CC4)cc3)n2)n[nH]1 [Tozasertib] (partner 0.1 µM)
The essentials: (§1)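 Five library-drug doses in √10 steps were combined with a fixed anchor-drug dose, or a single drug was given alone, by pin tool to lung cancer cell lines in 1536-well plates the day after seeding. Nuclei were stained and counted after 5 days. Relative viability is the nuclei count in treated wells over that in vehicle wells, taken as the median of duplicate plates.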

Compound in the assay “R406 + OSI-027”: COc1cc(Nc2ncc(F)c(Nc3ccc4c(n3)NC(=O)C(C)(C)O4)n2)cc(OC)c1OC [R406] + COc1cccc2cc(-c3nc([C@H]4CC[C@H](C(=O)O)CC4)n4ncnc(N)c34)[nH]c12 [OSI-027] (partner 0.5 µM)
The essentials: as §1

Compound in the assay “R406 + Navitoclax”: COc1cc(Nc2ncc(F)c(Nc3ccc4c(n3)NC(=O)C(C)(C)O4)n2)cc(OC)c1OC [R406] + CC1(C)CCC(c2ccc(Cl)cc2)=C(CN2CCN(c3ccc(C(=O)NS(=O)(=O)c4ccc(N[C@H](CCN5CCOCC5)CSc5ccccc5)c(S(=O)(=O)C(F)(F)F)c4)cc3)CC2)C1 [Navitoclax] (partner 0.5 µM)
Summed up:
as §1

Compound in the assay “Daporinad + Linsitinib”: O=C(/C=C/c1cccnc1)NCCCCC1CCN(C(=O)c2ccccc2)CC1 [Daporinad] + C[C@]1(O)C[C@@H](c2nc(-c3ccc4ccc(-c5ccccc5)nc4c3)c3c(N)nccn32)C1 [Linsitinib] (partner 1 µM)
Summed up:
as §1

As to UMC-11, the relative viability with Daporinad + Tozasertib (first compound 0.0005 µM) was 0.21; with Daporinad + Tozasertib (first compound 0.001581 µM), 0.208; with Daporinad + Tozasertib (first compound 0.005 µM), 0.207; in the assay with Daporinad + Tozasertib (first compound 0.01581 µM), 0.2; in the assay with R406 + OSI-027 (first compound 0.08 µM), 0.429; with R406 + OSI-027 (first compound 0.253 µM), 0.517. Moreover, the relative viability was 0.488 in the assay with R406 + OSI-027 (first compound 0.8 µM); 0.463 in the assay with R406 + OSI-027 (first compound 2.53 µM); 0.253 in the assay with R406 + OSI-027 (first compound 8 µM); 0.357 in the assay with R406 + Navitoclax (first compound 0.08 µM); 0.321 in the assay with R406 + Navitoclax (first compound 0.253 µM); 0.295 with R406 + Navitoclax (first compound 0.8 µM). Further, the relative viability in the assay with R406 + Navitoclax (first compound 2.53 µM) turned out to be 0.288; in the assay with R406 + Navitoclax (first compound 8 µM), 0.191; in the assay with Daporinad + Linsitinib (first compound 0.0005 µM), 1.02; with Daporinad + Linsitinib (first compound 0.001581 µM), 0.975; with Daporinad + Linsitinib (first compound 0.005 µM) it was 1.1; with Daporinad + Linsitinib (first compound 0.01581 µM) it was 1.03.

Values taken from the supplement of paper PMC10307832.
